Laboratory results: PubChem BioAssay AID602275 (The Scripps Research Institute Molecular Screening Center, 2012)
pIC50: −log10 of the molar value. “And” between values parts separate entries of the source, which are not always exact repeats. Equal entries are not always repeated. The source made the active and inactive calls. How the calls were made is not given here.

Experiments:
NS3h 2a[JFH1] = experiment: NS3h unwinding inhibitors, genotype 1b and 2a – biochemical, real-time fluorescence, strains con1 and JFH1, set 3, selectivity assay for HCV NS3 helicase inhibitor project, late-stage follow-up (AID 602275); settings: Recombinant NS3h
NS3h 1b[con1] = experiment: as above; settings: Recombinant NS3h

pIC50 (NS3h 2a[JFH1])	pIC50 (NS3h 1b[con1])	IC50 (NS3h 2a[JFH1])	IC50 (NS3h 1b[con1])	outcome (NS3h 2a[JFH1])	outcome (NS3h 1b[con1])	SMILES
4.61	4.85					Cc1ccc2nc(-c3ccc4nc(-c5ccc(NC(=O)c6ccccc6C(F)(F)F)cc5)sc4c3)sc2c1S(=O)(=O)O
5.00	5.11					Cc1ccc2nc(-c3ccc4nc(-c5ccc(NC(=O)Nc6ccc(F)cc6)cc5)sc4c3)sc2c1S(=O)(=O)O
	4.77	inactive				Cc1ccc2nc(-c3ccc4nc(-c5ccc(NC(=O)c6c(F)cccc6C(F)(F)F)cc5)sc4c3)sc2c1S(=O)(=O)O
5.77 and 6.10	5.40 and 4.54					Cc1ccc2nc(-c3ccc4nc(-c5ccc(NC(=O)c6ccc7nc(-c8ccc(NC(=O)OCC9c%10ccccc%10-c%10ccccc%109)cc8)sc7c6)cc5)sc4c3)sc2c1S(=O)(=O)O
4.77	4.54					Cc1cc(C(O)(c2ccc(Nc3ccccc3)cc2)c2ccc(Nc3ccc(S(=O)(=O)O)cc3)cc2)ccc1N (stereo not drawn)
5.22	4.96					Cc1ccc2nc(-c3ccc4nc(-c5ccc(NC(=O)c6ccc(N(C)C)cc6)cc5)sc4c3)sc2c1S(=O)(=O)O
5.60	5.48					Cc1ccc(C(=O)Nc2ccc(-c3nc4ccc(-c5nc6ccc(C)c(S(=O)(=O)O)c6s5)cc4s3)cc2)cc1
5.35	5.43					Cc1ccc2nc(-c3ccc4nc(-c5ccc(NC(=O)c6ccc(Cl)c(Cl)c6)cc5)sc4c3)sc2c1S(=O)(=O)O
6.30 and 5.92	6.10 and 5.66					Cc1ccc2nc(-c3ccc4nc(-c5ccc6nc(-c7ccc8nc(-c9ccc(N)cc9)sc8c7)sc6c5)sc4c3)sc2c1S(=O)(=O)O
4.54	4.54					Cc1ccc2nc(-c3ccc(NC(=O)c4ccc(NC(=S)Nc5ccccc5)cc4)cc3)sc2c1S(=O)(=O)O
5.19	5.32					COc1ccc(NC(=O)Nc2ccc(-c3nc4ccc(-c5nc6ccc(C)c(S(=O)(=O)O)c6s5)cc4s3)cc2)cc1
5.52	5.28					Cc1ccc2nc(-c3ccc4nc(-c5ccc(NC(=O)c6ccc(F)cc6)cc5)sc4c3)sc2c1S(=O)(=O)O
4.68			inactive			Cc1ccc2nc(-c3ccc(N)cc3)sc2c1S(=O)(=O)O
4.78	4.72					Cc1ccc2nc(-c3ccc4nc(-c5ccc(NC(=O)c6cc(F)ccc6C(F)(F)F)cc5)sc4c3)sc2c1S(=O)(=O)O
		inactive	inactive			Cc1ccc2nc(-c3ccc4nc(NC(=O)c5ccc6ncoc6c5)sc4c3)sc2c1
5.34	5.36					Cc1ccc2nc(-c3ccc4nc(-c5ccc(NC(=O)c6ccc(CNC(=O)OCC7c8ccccc8-c8ccccc87)cc6)cc5)sc4c3)sc2c1S(=O)(=O)O
5.09	5.04					Cc1ccc2nc(-c3ccc4nc(-c5ccc(NC(=O)c6cccc(C(F)(F)F)c6F)cc5)sc4c3)sc2c1S(=O)(=O)O
5.13	5.28					Cc1ccc2nc(-c3ccc4nc(-c5ccc(NC(=O)c6ccc(Br)cc6)cc5)sc4c3)sc2c1S(=O)(=O)O
				inactive	inactive	COc1ccc2sc(NC(=O)c3ccc4ncsc4c3)nc2c1
4.72	4.62					CN1CCN(Cc2cc(CN3CCN(C)CC3)c(O)c(=O)c(CN3CCN(C)CC3)c2)CC1
5.62	5.01					COC(=O)c1ccc(C(=O)Nc2ccc(-c3nc4ccc(-c5nc6ccc(C)c(S(=O)(=O)O)c6s5)cc4s3)cc2)cc1
4.83	4.98					Cc1ccc2nc(-c3ccc(NC(=O)c4ccc(NC(=O)c5ccc(C(F)(F)F)cc5)cc4)cc3)sc2c1S(=O)(=O)O
4.59	4.53					Cc1ccc2nc(-c3ccc(NC(=O)c4ccc(NC(=O)c5ccc(N)cc5)cc4)cc3)sc2c1S(=O)(=O)O
4.61	4.48					CCN(CC)c1ccc(-c2nc3ccc(C)c(S(=O)(=O)O)c3s2)cc1

pIC50 (NS3h 2a[JFH1])	pIC50 (NS3h 1b[con1])	IC50 (NS3h 2a[JFH1])	IC50 (NS3h 1b[con1])	outcome (NS3h 2a[JFH1])	outcome (NS3h 1b[con1])	SMILES
				inactive	inactive	CC(=O)Nc1ccc(-c2nc3ccc(-c4nc5ccc(C)c(S(=O)(=O)O)c5s4)cc3s2)cc1
4.80	4.71					Cc1ccc2nc(-c3ccc4nc(-c5ccc(NC(=O)c6cccc(C(F)(F)F)c6)cc5)sc4c3)sc2c1S(=O)(=O)O
		inactive			inactive	Cc1cc2sc(-c3ccc(N)cc3)nc2cc1S(=O)(=O)O
5.40	5.28					Cc1ccc(NC(=O)Nc2ccc(-c3nc4ccc(-c5nc6ccc(C)c(S(=O)(=O)O)c6s5)cc4s3)cc2)cc1
6.22	6.05					Cc1ccc2nc(-c3ccc4nc(-c5ccc6nc(-c7ccc(N)cc7)sc6c5)sc4c3)sc2c1S(=O)(=O)O
5.19	5.44					Cc1ccc2nc(-c3ccc4nc(-c5ccc(NC(=O)c6ccc7ncoc7c6)cc5)sc4c3)sc2c1S(=O)(=O)O
5.22	5.39					Cc1ccc2nc(-c3ccc4nc(-c5ccc(NC(=O)Nc6ccccc6)cc5)sc4c3)sc2c1S(=O)(=O)O
		inactive	inactive			Cc1ccc2nc(-c3ccc(NC(=O)c4ccc(NC(=O)c5ccccc5)cc4)cc3)sc2c1S(=O)(=O)O
4.87	4.96					Cc1ccc2nc(-c3ccc4nc(-c5ccc(NCc6ccccc6)cc5)sc4c3)sc2c1S(=O)(=O)O
5.33	5.34					CCN(CC)c1ccc(-c2nc3ccc(-c4nc5ccc(C)c(S(=O)(=O)O)c5s4)cc3s2)cc1
				inactive	inactive	Cc1ccc2nc(-c3ccc(NC(=O)c4ccc(C(F)(F)F)cc4)cc3)sc2c1S(=O)(=O)O
5.34	4.97					Cc1ccc2nc(-c3ccc4nc(-c5ccc(NC(=O)c6ccccc6)cc5)sc4c3)sc2c1S(=O)(=O)O
4.87	4.61					COc1ccc(S(=O)(=O)Nc2ccc(-c3nc4ccc(-c5nc6ccc(C)c(S(=O)(=O)O)c6s5)cc4s3)cc2)cc1
5.22 and 4.80	4.42 and 4.39					NS(=O)(=O)c1ccc2nc(NC(=O)c3ccc4ncsc4c3)sc2c1
		inactive			inactive	Cc1ccc2nc(-c3ccc(NC(=S)Nc4ccccc4Br)cc3)sc2c1
		inactive			inactive	CCOc1ccc2c(NNC(=O)c3cnccn3)c3c(nc2c1)CCCC3
5.36	5.44					Cc1ccc2nc(-c3ccc4nc(-c5ccc(NC(=O)Nc6ccc(Cl)cc6)cc5)sc4c3)sc2c1S(=O)(=O)O
		inactive				Cc1ccc2nc(-c3ccc4nc(-c5ccc(NC(=O)c6ccncc6)cc5)sc4c3)sc2c1S(=O)(=O)O
5.66 and 5.36	5.57 and 5.44					Cc1ccc2nc(-c3ccc4nc(-c5ccc(NC(=O)c6ccc7ccccc7c6)cc5)sc4c3)sc2c1S(=O)(=O)O
5.02	5.03					Cc1ccc2nc(-c3ccc4nc(-c5ccc(NC(=S)Nc6ccccc6)cc5)sc4c3)sc2c1S(=O)(=O)O
5.41	5.59					Cc1ccc2nc(-c3ccc4nc(-c5ccc(NC(=O)c6cccc(Cl)c6)cc5)sc4c3)sc2c1S(=O)(=O)O
5.28	4.89					Cc1ccc2nc(-c3ccc4nc(-c5ccc6nc(-c7ccc(N)cc7)sc6c5)sc4c3)sc2c1S(=O)(=O)O (tested in a mixture with another compound)
4.55						Cc1ccc2nc(-c3ccc4nc(-c5ccc(NC(=O)c6cccnc6)cc5)sc4c3)sc2c1S(=O)(=O)O
4.54						Cc1ccc2nc(-c3ccc4nc(-c5ccc(NC(=O)c6cc(C(F)(F)F)cc(C(F)(F)F)c6)cc5)sc4c3)sc2c1S(=O)(=O)O
